Assay results reported in patent publication US9149509B2, “Methods for improving neurological outcome after neural injury and neurodegenerative disease” (HENRY FORD HEALTH SYSTEM, priority 2009, dated 2015).

Experiments:
[1] = tested on: experimental autoimmune encephalomyelitis (EAE) mice; assay: Experimental autoimmune encephalomyelitis (EAE) mouse model of multiple sclerosis; type: in vivo; conditions: 6 mg/kg IP, up to 30 days, vs saline control, p<0.01, FIG. 9
Method: (§1) Effectiveness of treatment with thymosin β4 was tested in stroke (middle cerebral artery occlusion (MCAo)) rats and in experimental autoimmune encephalomyelitis (EAE) mice (a well-established in vivo model for multiple sclerosis). Both the stroke rats and the EAE mice were treated with 6 mg/kg thymosin β4 intraperitoneally (IP) in a volume of 0.3 mL twenty-four hours after stroke or after the day of immunization in the EAE model and then every three days (6 mg/kg IP) for four additional doses. An equal volume of saline was administered (IP) to a group of both stroke rats and EAE mice as a control. Bromodeoxyuridine (BrdU; 100 mg/kg) was administered (IP) daily for seven days, initiated 24 hours after MCAo to label proliferating cells. Behavioral tests (adhesive removable test and NSS (Neurological Severity Score)) were performed immediately before treatment and at days 1, 7, 14, 21, 28, 35, 42, 49, and 56 days after MCAo and up to 30 days in the EAE mouse model. All rats were sacrificed 56 days after MCAo; EAE mice were sacrificed at 30 days.

[2] = tested on: stroke (middle cerebral artery occlusion (MCAo)) rats; assay: Embolic middle cerebral artery occlusion (MCAo) stroke model in rats; type: in vivo, rat
Method: as §1

[3] = embolic stroke rats, 6 mg/kg IP, vs saline control

Substance: thymosin β4
- functional neurological score [1]: robust improvement
- number of myelinated axons (Bielschowsky and Luxol Fast Blue staining) ([2]; after MCAo, treated vs control, p<0.05, FIG. 4): increased
- cellular proliferation (BrdU expression, number of BrdU immunoreactive cells) ([2]; after MCAo, treated vs control, p<0.05, FIG. 8): increased
- number of oligodendrocyte progenitors and matured oligodendrocytes ([2]; after MCAo, treated vs control, p<0.05, FIGS. 5-7): increased
- functional improvement in behavioral tests (adhesive removal test, NSS) ([2]; beginning at 21 days after stroke onset, 6 mg/kg IP, p<0.05, FIG. 1-2): Significant functional improvement
- relative increase in BrdU expression in the striatum or myelinated region of the rat brain ([2]; embolic stroke rats, 6 mg/kg IP 24 h after stroke, then every three days for four additional doses, sacrificed 56 days after MCAo): 42%
- increase in CNP, a marker of mature oligodendrocytes [2, 3]: 11%
- increase in NG-2, a marker of immature oligodendrocytes [2, 3]: 47%
